What was measured:
S. haemolyticus 4068 = assay: microbe, parasite or virus in culture; conditions: for MIC of the component in combination: 4068
Description: (§1) Growth inhibition assays were performed in 96-well microtiter plates as described previously (Chi and Holo, 2018, supra). Briefly, 135 μl of TSB were dispensed in each well of a microtiter plate (according to the number of bacterial strains tested) except in the wells of the first row. The antimicrobials were diluted in TSB to working concentrations in a final volume of 285 μl and dispensed in the wells of the first row. The working concentrations were 100 μg/μl for garvicin KS, 10 μg/μl for micrococcin P1 and 1 mg/ml for penicillin G. From the first row, 150 μl of the antimicrobials were then serially diluted (two-fold dilutions) in a sequential fashion until the last row of the plate. Finally, 15 μl of a fresh O/N culture of each strain were added in the appropriate wells to reach a final volume of 150 μl in each well. The plates were then incubated at 37° C. for 24 h. The growth inhibition was expressed as minimum inhibitory concentration (MIC50), which refers to the minimum concentration of the antimicrobial needed to reduce at least 50% of the microbial growth compared to the untreated control. The MIC50 was assessed by optical density readings at 600 nm (O.D.600).
(§2) Synergistic interactions between antimicrobials were determined using the fractional inhibition concentration (FIC). The FIC values were calculated as follows: the sum of the FIC =FICa+FICb+FICc, where the FICa means MIC of A in combination/MIC of A alone, FICb means MIC of B in combination/MIC of B, and FICc means MIC of C in combination/MIC of C alone. Effects were considered as synergistic if FIC was ≤0.5 for two components mixture and ≤0.75 for three components mixture.
(§3) Bacteriocins and antimicrobial assays. […] These bacteriocins were all solubilized in 0.1% (vol/vol) trifluoracetic acid (TFA; Sigma-Aldrich). […] Cell growth inhibition assays and antimicrobial synergy determination was performed in line with Example 1.
(§4) To investigate whether there was synergy between the three bacteriocins (K1-EJ, GarKS and MP1), a checkboard antimicrobial assay was performed. The selected strains were treated for 5, 24 and 48 h with a range of concentrations of K1-EJ, GarKS and MP1 alone or in different combinations.

S. haemolyticus 4071 = assay: microbe, parasite or virus in culture; conditions: for MIC of the component in combination: 4071
Description: as §1, §2, §3, §4

S. haemolyticus 4069 = assay: microbe, parasite or virus in culture; conditions: for MIC of the component in combination: 4069
Description: as §1, §2, §3, §4

S. haemolyticus 4072 = assay: microbe, parasite or virus in culture; conditions: for MIC of the component in combination: 4072
Description: as §1, §2, §3, §4

S. haemolyticus 4073 = assay: microbe, parasite or virus in culture; conditions: for MIC of the component in combination: 4073
Description: as §1, §2, §3, §4

S.a. 3255 = assay: Planktonic cell growth inhibition assay (MIC50, liquid culture); format: cell-based, Staphylococcus aureus
Description: as §1, §2

S. aureus ATTC 10832 = assay: as above; format: cell-based, Staphylococcus aureus
Description: as §1, §2

S. aureus USA 300 = assay: as above; format: cell-based, Staphylococcus aureus
Description: as §1, §2

S. aureus Newman = assay: as above; format: cell-based, Staphylococcus aureus
Description: as §1, §2

S. aureus ATTC 29213 = assay: as above; format: cell-based, Staphylococcus aureus
Description: as §1, §2

S. aureus ATTC 33591 = assay: as above; format: cell-based, Staphylococcus aureus
Description: as §1, §2

[1] = Staphylococcus aureus, individual component, read-out: MIC50
[2] = garvicin KS + micrococcin P1 + penicillin G

`C/C=C(\NC(=O)c1csc(-c2csc(-c3ccc4c(n3)-c3csc(n3)[C@H]([C@@H](C)O)NC(=O)c3csc(n3)[C@H](C(C)C)NC(=O)c3csc(n3)/C(=C/C)NC(=O)[C@H]([C@@H](C)O)NC(=O)c3csc-4n3)n2)n1)C(=O)NC[C@@H](C)O` [MP1, micrococcin P1] was tested, and the “MIC of the component in combination” value (S. haemolyticus 4068; 5 h, GarKS + MP1) was 0.02 µg/mL, the “MIC of the component in combination” value (S. haemolyticus 4068; 5 h, K1-EJ + GarKS + MP1) was 0.032 µg/mL and the “MIC of the component in combination” value (S. haemolyticus 4068; 5 h, K1-EJ + MP1) was 0.02 µg/mL. The “MIC of the component in combination” value (S. haemolyticus 4068; 24 h, GarKS + MP1) was 0.032 µg/mL, the “MIC of the component in combination” value (S. haemolyticus 4068; 24 h, K1-EJ + GarKS + MP1) was 0.078 µg/mL and the “MIC of the component in combination” value (S. haemolyticus 4068; 24 h, K1-EJ + MP1) was 0.078 µg/mL. For the same molecule, the “MIC of the component in combination” value (S. haemolyticus 4068; 48 h, GarKS + MP1) was 0.068 µg/mL, the “MIC of the component in combination” value (S. haemolyticus 4068; 48 h, K1-EJ + GarKS + MP1) was 0.28 µg/mL and the “MIC of the component in combination” value (S. haemolyticus 4068; 48 h, K1-EJ + MP1) was 0.072 µg/mL. It also gave an MIC (S. haemolyticus 4068; Staphylococcus haemolyticus, 4068, 5 h) of 0.02 µg/mL, an MIC (S. haemolyticus 4068; Staphylococcus haemolyticus, 4068, 24 h) of 0.023 µg/mL and an MIC (S. haemolyticus 4068; Staphylococcus haemolyticus, 4068, 48 h) of 0.078 µg/mL. For the same molecule, the “MIC of the component in combination” value (S. haemolyticus 4071; 5 h, GarKS + MP1) was 0.068 µg/mL, the “MIC of the component in combination” value (S. haemolyticus 4071; 5 h, K1-EJ + GarKS + MP1) was 0.072 µg/mL and the “MIC of the component in combination” value (S. haemolyticus 4071; 5 h, K1-EJ + MP1) was 0.042 µg/mL. For the same molecule, the “MIC of the component in combination” value (S. haemolyticus 4071; 24 h, GarKS + MP1) was 0.63 µg/mL, the “MIC of the component in combination” value (S. haemolyticus 4071; 24 h, K1-EJ + GarKS + MP1) was 0.16 µg/mL and the “MIC of the component in combination” value (S. haemolyticus 4071; 24 h, K1-EJ + MP1) was 0.14 µg/mL. The “MIC of the component in combination” value (S. haemolyticus 4071; 48 h, GarKS + MP1) was 0.65 µg/mL, the “MIC of the component in combination” value (S. haemolyticus 4071; 48 h, K1-EJ + GarKS + MP1) was 0.33 µg/mL and the “MIC of the component in combination” value (S. haemolyticus 4071; 48 h, K1-EJ + MP1) was 0.3 µg/mL. The MIC (S. haemolyticus 4071; Staphylococcus haemolyticus, 4071, 5 h) was 0.043 µg/mL, the MIC (S. haemolyticus 4071; Staphylococcus haemolyticus, 4071, 24 h) was > 10 µg/mL and the MIC (S. haemolyticus 4071; Staphylococcus haemolyticus, 4071, 48 h) was > 10 µg/mL. For the same molecule, the “MIC of the component in combination” value (S. haemolyticus 4069; 5 h, GarKS + MP1) was 0.16 µg/mL, the “MIC of the component in combination” value (S. haemolyticus 4069; 5 h, K1-EJ + GarKS + MP1) was 0.068 µg/mL and the “MIC of the component in combination” value (S. haemolyticus 4069; 5 h, K1-EJ + MP1) was 0.15 µg/mL. For the same molecule, the “MIC of the component in combination” value (S. haemolyticus 4069; 24 h, GarKS + MP1) was 2.5 µg/mL, the “MIC of the component in combination” value (S. haemolyticus 4069; 24 h, K1-EJ + GarKS + MP1) was 0.33 µg/mL and the “MIC of the component in combination” value (S. haemolyticus 4069; 24 h, K1-EJ + MP1) was 2.3 µg/mL. For the same molecule, the “MIC of the component in combination” value (S. haemolyticus 4069; 48 h, GarKS + MP1) was 5 µg/mL, the “MIC of the component in combination” value (S. haemolyticus 4069; 48 h, K1-EJ + GarKS + MP1) was 0.58 µg/mL and the “MIC of the component in combination” value (S. haemolyticus 4069; 48 h, K1-EJ + MP1) was 4.8 µg/mL. The MIC (S. haemolyticus 4069; Staphylococcus haemolyticus, 4069, 5 h) was 0.15 µg/mL, the MIC (S. haemolyticus 4069; Staphylococcus haemolyticus, 4069, 24 h) was > 10 µg/mL and the MIC (S. haemolyticus 4069; Staphylococcus haemolyticus, 4069, 48 h) was > 10 µg/mL. For the same molecule, the “MIC of the component in combination” value (S. haemolyticus 4072; 5 h, GarKS + MP1) was 0.073 µg/mL, the “MIC of the component in combination” value (S. haemolyticus 4072; 5 h, K1-EJ + GarKS + MP1) was 0.068 µg/mL and the “MIC of the component in combination” value (S. haemolyticus 4072; 5 h, K1-EJ + MP1) was 0.036 µg/mL. For the same molecule, the “MIC of the component in combination” value (S. haemolyticus 4072; 24 h, GarKS + MP1) was 0.16 µg/mL, the “MIC of the component in combination” value (S. haemolyticus 4072; 24 h, K1-EJ + GarKS + MP1) was 0.16 µg/mL and the “MIC of the component in combination” value (S. haemolyticus 4072; 24 h, K1-EJ + MP1) was 0.15 µg/mL. For the same molecule, the “MIC of the component in combination” value (S. haemolyticus 4072; 48 h, GarKS + MP1) was 0.31 µg/mL, the “MIC of the component in combination” value (S. haemolyticus 4072; 48 h, K1-EJ + GarKS + MP1) was 0.58 µg/mL and the “MIC of the component in combination” value (S. haemolyticus 4072; 48 h, K1-EJ + MP1) was 0.16 µg/mL. The MIC (S. haemolyticus 4072; Staphylococcus haemolyticus, 4072, 5 h) was 0.039 µg/mL, the MIC (S. haemolyticus 4072; Staphylococcus haemolyticus, 4072, 24 h) was > 10 µg/mL and the MIC (S. haemolyticus 4072; Staphylococcus haemolyticus, 4072, 48 h) was 0.63 µg/mL. The “MIC of the component in combination” value (S. haemolyticus 4073; 5 h, GarKS + MP1) was 0.02 µg/mL, the “MIC of the component in combination” value (S. haemolyticus 4073; 5 h, K1-EJ + GarKS + MP1) was 0.033 µg/mL and the “MIC of the component in combination” value (S. haemolyticus 4073; 5 h, K1-EJ + MP1) was 0.02 µg/mL. For the same molecule, the “MIC of the component in combination” value (S. haemolyticus 4073; 24 h, GarKS + MP1) was 0.073 µg/mL, the “MIC of the component in combination” value (S. haemolyticus 4073; 24 h, K1-EJ + GarKS + MP1) was 0.078 µg/mL and the “MIC of the component in combination” value (S. haemolyticus 4073; 24 h, K1-EJ + MP1) was 0.036 µg/mL. The “MIC of the component in combination” value (S. haemolyticus 4073; 48 h, GarKS + MP1) was 0.083 µg/mL, the “MIC of the component in combination” value (S. haemolyticus 4073; 48 h, K1-EJ + GarKS + MP1) was 0.16 µg/mL and the “MIC of the component in combination” value (S. haemolyticus 4073; 48 h, K1-EJ + MP1) was 0.01 µg/mL. For the same molecule, the MIC (S. haemolyticus 4073; Staphylococcus haemolyticus, 4073, 5 h) was 0.022 µg/mL, the MIC (S. haemolyticus 4073; Staphylococcus haemolyticus, 4073, 24 h) was 0.072 µg/mL and the MIC (S. haemolyticus 4073; Staphylococcus haemolyticus, 4073, 48 h) was 0.14 µg/mL. For the same molecule, the MIC50 (S.a. 3255; [1]) was 10 µg/mL, the “MIC50 of the component in combination” value (S.a. 3255; garvicin KS + micrococcin P1) was 1.3 µg/mL and the “MIC50 of the component in combination” value (S.a. 3255; [2]) was <0.078 µg/mL. For the same molecule, the MIC50 (S. aureus ATTC 10832; Staphylococcus aureus, ATTC10832, individual component, read-out: MIC50) was 0.63 µg/mL, the “MIC50 of the component in combination” value (S. aureus ATTC 10832; garvicin KS + micrococcin P1) was 0.63 µg/mL and the “MIC50 of the component in combination” value (S. aureus ATTC 10832; [2]) was <0.078 µg/mL. For the same molecule, the MIC50 (S. aureus USA 300; Staphylococcus aureus, USA300, individual component, read-out: MIC50) was 0.63 µg/mL, the “MIC50 of the component in combination” value (S. aureus USA 300; garvicin KS + micrococcin P1) was 0.156 µg/mL and the “MIC50 of the component in combination” value (S. aureus USA 300; [2]) was 0.63 µg/mL. The MIC50 (S. aureus Newman; [1]) was 0.313 µg/mL, the “MIC50 of the component in combination” value (S. aureus Newman; garvicin KS + micrococcin P1) was 0.313 µg/mL and the “MIC50 of the component in combination” value (S. aureus Newman; [2]) was <0.078 µg/mL. The MIC50 (S. aureus ATTC 29213; Staphylococcus aureus, ATTC29213, individual component, read-out: MIC50) was 2.5 µg/mL, the “MIC50 of the component in combination” value (S. aureus ATTC 29213; garvicin KS + micrococcin P1) was 1.3 µg/mL and the “MIC50 of the component in combination” value (S. aureus ATTC 29213; [2]) was 0.31 µg/mL. For the same molecule, the MIC50 (S. aureus ATTC 33591; Staphylococcus aureus, ATTC33591, individual component, read-out: MIC50) was > 10 µg/mL, the “MIC50 of the component in combination” value (S. aureus ATTC 33591; garvicin KS + micrococcin P1) was 1.3 µg/mL and the “MIC50 of the component in combination” value (S. aureus ATTC 33591; [2]) was 1.3 µg/mL.

— patent US20240041976A1, “COMPOSITION AND USE” (priority 2020, published 2024)
